Laboratory results taken from publication PMC9721424, “Novel N-methylsulfonyl-indole derivatives: biological activity and COX-2/5-LOX inhibitory effect with improved gastro protective profile and reduced cardio vascular risks” (Journal of Enzyme Inhibition and Medicinal Chemistry, 2022).
Several values for one entry are separate records, joined by “and”; a condition that tells them apart may be missing. Equal values may be shown once. Read-outs that look alike come from different tables or passages of the source.

Assays:
ovine COX-1 = molecular target: T1, ovine COX-1 (Ovis aries, UniProt P05979); test: COX-1 inhibition, enzyme immune assay (EIA) kit
T1 sequence (P05979 25-600): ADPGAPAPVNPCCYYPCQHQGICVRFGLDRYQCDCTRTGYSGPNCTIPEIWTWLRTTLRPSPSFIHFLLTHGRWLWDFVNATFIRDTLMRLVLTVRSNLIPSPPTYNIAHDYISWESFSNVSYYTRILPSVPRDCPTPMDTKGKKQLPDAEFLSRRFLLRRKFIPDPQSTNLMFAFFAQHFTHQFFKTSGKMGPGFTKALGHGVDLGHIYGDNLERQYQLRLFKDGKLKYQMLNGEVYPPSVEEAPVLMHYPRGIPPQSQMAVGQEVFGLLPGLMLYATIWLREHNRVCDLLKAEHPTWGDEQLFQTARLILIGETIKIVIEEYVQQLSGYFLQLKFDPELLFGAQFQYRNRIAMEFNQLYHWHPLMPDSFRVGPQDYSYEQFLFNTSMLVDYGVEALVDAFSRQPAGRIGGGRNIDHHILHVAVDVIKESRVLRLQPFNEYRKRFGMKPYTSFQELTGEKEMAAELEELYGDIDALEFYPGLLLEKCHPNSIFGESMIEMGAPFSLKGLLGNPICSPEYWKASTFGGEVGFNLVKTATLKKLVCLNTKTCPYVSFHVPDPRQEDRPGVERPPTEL
Excerpt: Colorimetric enzyme immunoassay (EIA) kits were done to screen for the isozyme-specific inhibition.

DPPH free radical assay = format: biochemical; settings: 540 nm, relative to Trolox; for DPPH test results (µM trolox equivalent/ 1mg sample ± SD): 30 min; for DPPH anti-oxidant activity: values in text
Procedure: Preparation of samples was occurred at the following concentrations: Samples 3a, 4a, 5b, 5d and 5e at final concentrations of 0.5 mg/ml in methanol: DMSO 9:1 v/v. Samples 4b and 4d at final concentrations 0.025 mg/ml in methanol: DMSO 9:1 v/v, sample 5a at final concentrations 0.25 mg/ml in methanol: DMSO 9:1 v/v, Sample 4c, 5c and 4e at final concentrations 0.05 mg/ml in methanol: DMSO 9:1 v/v, sample 3b at final concentration 0.75 mg/ml methanol: DMSO 9:1 v/v. A stock solution of 100 µM concentration of Trolox, a standard used in this experiment, was prepared in methanol from which seven concentrations were prepared, including 50, 40, 30, 20, 15, 10 and 5 µM.
The DPPH (2,2-diphenyl-1-picryl-hydrazyl-hydrate) free radical assay was carried out according to the method of Boly et al. 2016[39]. Briefly, freshly prepared DPPH reagent (100 µl, 0.1% in methanol) was added to 100 µl of the sample on 96 well plates (n = 6). The reaction was incubated at room temp for 30 min in the dark. After completion of the incubation time, the reduction in DPPH colour intensity was measured at 540 nm. Data obtained was represented as means ± SD, according to the following equation, percentage inhibition = [(Average absorbance of blank – average absorbance of the test)/(Average absorbance of blank)] *100. The results were recorded using a microplate reader, FluoStar Omega.
Microsoft Excel® was used to analyse the obtained results. The IC50 values were calculated using Graph pad Prism 6® by converting the concentrations to their logarithmic value and selecting the non-linear inhibitor regression equation (log (inhibitor) vs. normalised response – variable slope equation). The methods used and the final test report (R-SO7320) were obtained from Nawah Scientific.

COX-2 = molecular target: T2, COX-2 (Ovis aries, UniProt P79208); test: COX-2 inhibition, enzyme immune assay (EIA) kit; format: biochemical, ovine; settings: for S.I (IC50 COX-1/IC50 COX-2): COX-2 selectivity index; for SI: lab report, COX1/COX2
T2 sequence (P79208 17-603): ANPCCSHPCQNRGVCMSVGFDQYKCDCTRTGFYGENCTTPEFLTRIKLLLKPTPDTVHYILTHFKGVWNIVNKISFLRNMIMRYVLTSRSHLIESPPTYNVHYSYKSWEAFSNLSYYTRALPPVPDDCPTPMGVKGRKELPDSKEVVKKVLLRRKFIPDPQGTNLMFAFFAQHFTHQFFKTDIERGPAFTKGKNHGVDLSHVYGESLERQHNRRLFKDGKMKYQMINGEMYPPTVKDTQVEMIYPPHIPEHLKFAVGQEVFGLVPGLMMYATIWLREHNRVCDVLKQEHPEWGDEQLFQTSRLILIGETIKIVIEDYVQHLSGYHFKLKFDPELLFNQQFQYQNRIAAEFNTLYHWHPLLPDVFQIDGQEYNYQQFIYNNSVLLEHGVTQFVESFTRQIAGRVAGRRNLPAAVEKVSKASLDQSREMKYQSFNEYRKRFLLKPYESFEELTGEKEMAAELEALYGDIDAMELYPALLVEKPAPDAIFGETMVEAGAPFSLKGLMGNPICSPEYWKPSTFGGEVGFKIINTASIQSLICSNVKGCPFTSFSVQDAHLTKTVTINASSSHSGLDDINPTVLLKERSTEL

5-LOX enzyme = molecular target: T3, 5-LOX enzyme (Homo sapiens, UniProt P09917); test: 5-LOX inhibition, Human Lipoxygenase Inhibitor Screening Assay (EIA) kit; format: biochemical
T3 construct: purchased Cayman Chemical K980-100
T3 sequence (P09917 1-674): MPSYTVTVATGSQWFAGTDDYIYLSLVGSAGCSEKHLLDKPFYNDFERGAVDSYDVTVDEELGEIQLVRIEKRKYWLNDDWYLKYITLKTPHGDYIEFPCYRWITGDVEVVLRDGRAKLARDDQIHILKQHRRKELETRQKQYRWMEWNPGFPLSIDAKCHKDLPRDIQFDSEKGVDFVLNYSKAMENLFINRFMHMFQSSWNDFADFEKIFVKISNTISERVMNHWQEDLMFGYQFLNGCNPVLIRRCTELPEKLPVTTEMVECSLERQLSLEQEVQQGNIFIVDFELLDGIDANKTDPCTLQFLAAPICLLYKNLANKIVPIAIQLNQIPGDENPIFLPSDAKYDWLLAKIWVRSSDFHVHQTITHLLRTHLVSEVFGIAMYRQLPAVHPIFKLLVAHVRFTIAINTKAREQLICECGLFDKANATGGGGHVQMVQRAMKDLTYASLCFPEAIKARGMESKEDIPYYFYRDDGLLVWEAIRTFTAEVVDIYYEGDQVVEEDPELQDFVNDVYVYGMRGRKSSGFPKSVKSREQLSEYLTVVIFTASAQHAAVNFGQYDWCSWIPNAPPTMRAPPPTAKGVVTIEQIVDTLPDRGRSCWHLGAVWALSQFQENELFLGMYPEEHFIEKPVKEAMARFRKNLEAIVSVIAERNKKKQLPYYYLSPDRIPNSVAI
Procedure: The ability of the test compounds to inhibit the 5-LOX enzyme (IC50 value, μM) was detected using the Cayman Human Lipoxygenase Inhibitor Screening Assay (EIA) kit (catalog no. K980-100, Cayman Chemical). The IC50 values of test compounds were measured in µM according to the manufacturer’s instructions and reported method.

SMILES	IC50 (ovine COX-1; IC50 COX-1) [µM]	COX1 %inh (ovine COX-1; conc 0.1 (μM)) [%]	COX1 %inh (ovine COX-1; conc 1 (μM)) [%]	COX1 %inh (ovine COX-1; conc 10 (μM)) [%]	COX1 %inh (ovine COX-1; conc 100 (μM)) [%]	melting point [°C]	DPPH test results (µM trolox equivalent/ 1mg sample ± SD) (DPPH free radical assay)	S.I (IC50 COX-1/IC50 COX-2) (COX-2)	SI (COX-2)	IC50 (5-LOX enzyme) [µM]	5-LOX %inh (5-LOX enzyme; conc 0.1 (μM)) [%]	5-LOX %inh (5-LOX enzyme; conc 1 (μM)) [%]	5-LOX %inh (5-LOX enzyme; conc 10 (μM)) [%]	5-LOX %inh (5-LOX enzyme; conc 100 (μM)) [%]	IC50 (5-LOX enzyme; lab report) [µM]	DPPH anti-oxidant activity (DPPH free radical assay)	IC50 (ovine COX-1; read-out: IC50 COX-1) [µM]
CS(=O)(=O)n1cc(/C=N/NC(N)=O)c2ccccc21 [Compound 3a, (E)-2{[1-(methylsulfonyl)-1H-indol-3yl]methylene}hydrazinecarboxamide]	21.1 ± 0.6	4.87	12.4	37.8	71	238 to 240	5.91 ± 1.87 µM trolox equivalent/ 1mg sample	0.78	0.779	48.8 ± 2.58	2.63	5.83	18.6	70.3			
CS(=O)(=O)n1cc(/C=N/NC(N)=S)c2ccccc21 [Compound 4a, (E)-2{[1-(methylsulfonyl)-1H-indol-3yl]methylene}-hydrazine-1-carbothioamide]	11.3 ± 0.32	7.54	18.6	44	77.6	178 to 180	24.55 ± 1.61 µM trolox equivalent/ 1mg sample	2.80	2.799	2.31 ± 0.12	11.4	43.6	69	90.3	2.31 ± 0.12		
CS(=O)(=O)n1cc(/C=N/NC(=S)Nc2ccccc2)c2ccccc21 [Compound 4c, (E)-2{[1-(methylsulfonyl)-1H-indol-3yl]methylene}-N-phenylhydrazinecarbothioamide]	5.01 ± 0.14	11	24.7	60.6	83.5	220 to 222	263.29 ± 12.30 µM trolox equivalent/ 1mg sample	3.12	3.116	4.03 ± 0.21	12.1	37.1	57.1	83.8	4.03 ± 0.21	about 263.29 µM Trolox equivalent/mg	
CS(=O)(=O)n1cc(/C=N/N=C2\SC(=O)CN2c2ccccc2)c2ccccc21 [Compound 5c]		4.55	10.5	27.9	72.1	260 to 262	707.52 ± 49.91 µM trolox equivalent/ 1mg sample	3.63	3.628	79.4 ± 4.2	2.32	5.84	13	66.7		707.52 µM Trolox equivalent/mg and 707.5 µM Trolox equivalent/mg	29.2 ± 0.83
COc1ccc(N2CC(=O)S/C2=N\N=C\c2cn(S(C)(=O)=O)c3ccccc23)cc1 [Compound 5e]		3.76	13.1	20	68.5	273 to 275	13.22 ± 1.89 µM trolox equivalent/ 1mg sample	9.72 and 9.73	9.726	6.65 ± 0.35	11.6	24.1	53	80.8	6.65 ± 0.35		47.5 ± 1.35
